Data from patent US6251882A, “Alkyl ketones as potent anti-cancer agents” (Parker Hughes Institute, priority 1999, dated 2001).
Where a name gives a salt, the structure may show the parent alone. Residues, ends and D or L forms follow the SMILES beside them. *: point of attachment. Farnesyl = CC(C)=CCC/C(C)=C/CC/C(C)=C/C*; Boc = CC(C)(C)OC(=O)*; CH2Cl = ClC*

Key:
[1] = tested on: Nalm-6 (B-lineage ALL); assay: MTT cytotoxicity assay, Nalm-6; assay type: cell-based; conditions: Homo sapiens, 24-36 hours at 37° C., 0.1 to 250 μM
Experimental: (§1) Cytotoxicity of various compounds against tumor cells was performed using the MTT (3-[4,5-[…]]-2,5-diphenyl tetrazolium bromide) assay (Boehringer Mannheim Corp., Indianapolis, Ind.). Unless otherwise specified, all cell lines were obtained from the American Type Culture Collection (ATCC). Briefly, exponentially growing cells were seeded into a 96-well plate at a density of 2.5×10^4 cells/well and incubated for 36 hours at 37° C. prior to drug exposure. On the day of treatment, culture medium was carefully aspirated from the wells and replaced with fresh medium containing the indicated compound at concentrations ranging from 0.1 to 250 μM. Triplicate wells were used for each treatment.
(§2) Human leukemic cell lines (NALM-6, MOLT-3) glioblastoma cells (U373) and human breast tumor cell lines (BT20 and MDA-MB-231) were obtained from the American Type Culture Collection and maintained as a continuous cell line in Dulbecco's modified Eagles's medium supplemented with 10% fetal bovine serum and antibiotics.
(§3) The cells were incubated with the various compounds for 24-36 hours at 37° C. in a humidified 5% CO2 atmosphere. To each well, 10 μl of MTT (0.5 mg/ml final concentration) was added and the plates were incubated at 37° C. for 4 hours to allow MTT to form formazan crystals by reacting with metabolically active cells. The formazan crystals were solubilized overnight at 37° C. in a solution containing 10% SDS in 0.01 M HCl. The absorbence of each well was measured in a microplate reader (Labsystems) at 540 nm and a reference wavelength of […]. To translate the OD540 values into the number of live cells in each well, the OD540 values were compared to those on standard OD540 --versus--cell number curves generated for each cell line. The percent survival was calculated using the formula: [formula]
(§4) The IC50 values were calculated by non-linear regression analysis and are shown below in Tables 1-6.

[2] = tested on: Molt-3 (T-lineage ALL); assay: MTT cytotoxicity assay, Molt-3; assay type: cell-based, human; conditions: Homo sapiens, MOLT-3, MTT, 24-36 hours at 37° C., 0.1 to 250 μM
Experimental: as §1, §2, §3, §4

[3] = tested on: BT-20 (breast cancer); assay: MTT cytotoxicity assay, BT-20; assay type: cell-based; conditions: Homo sapiens, 24-36 hours at 37° C., 0.1 to 250 μM
Experimental: as §1, §2, §3, §4

[4] = tested on: PC-3 (prostate cancer); assay: MTT cytotoxicity assay, PC-3; assay type: cell-based; conditions: 24-36 hours at 37° C., 0.1 to 250 μM
Experimental: as §1, §3, §4

[5] = tested on: U-373 (glioblastoma); assay: MTT cytotoxicity assay, U-373; assay type: cell-based; conditions: Homo sapiens, U373 MG, 24-36 hours at 37° C., 0.1 to 250 μM
Experimental: as §1, §2, §3, §4

| Structure (SMILES) | IC50 [1] [µM] | IC50 [2] [µM] | IC50 [3] [µM] | IC50 [4] [µM] | IC50 [5] [µM] |
| --- | --- | --- | --- | --- | --- |
| CCCCCCCCCCCCSC[C@H](NC(C)=O)C(=O)CBr [HI-488, N-Ac-S-dodecyl-cysteine bromomethyl ketone] | 1.3 | 3.19 | 33.8 | 39.6 | 22.5 |
| CCCCCCCCCCCCSC[C@H](N)C(=O)CCl [HI-252, S-Dodecyl-Cys chloromethyl ketone hydrochloride] | 17.7 | 12.5 | > 100 | > 100 | > 100 |
| CCCCCCCCCCCCSC[C@H](NC(C)=O)C(=O)C=[N+]=[N-] [HI-348, N-Ac-S-dodecyl-Cys diazomethyl ketone] | 15.4 | 22.9 | 97.9 | > 100 | > 100 |
| CCCCCCCCCCCCSC[C@H](NC(=O)c1cccc(N(C)C)c1)C(=O)CCl [HI-268, N-3-Dimethylaminobenzoyl-S-dodecyl-cysteine chloromethyl ketone] | 96.1 |  | > 100 | > 100 | > 100 |
| CC(=O)N[C@@H](CSCc1ccc2ccccc2c1)C(=O)CCl [HI-392, N-Ac-S-2-naphthylmethyl-cysteine chloromethyl ketone] | 2.6 | 2.9 | 40.4 | 36.6 | 41.8 |
| CC(C)=CCC/C(C)=C/CC/C(C)=C/CSC[C@H](NC(=O)CNC(=O)OC(C)(C)C)C(=O)CCl [HI-130, N-Boc-Gly-S-trans-trans-farnesyl-Cys chloromethyl ketone] (Boc-Gly-Cys(Farnesyl)-CH2Cl) | 12.9 | 17.5 | > 100 | > 100 | 71.3 |
| CC(=O)N[C@@H](CSCC=C(C)C)C(=O)C=[N+]=[N-] [HI-123, N-Ac-S-(3-methyl-2-butenyl)-Cys diazomethyl ketone] | > 100 | > 100 | > 100 | > 100 | > 100 |
| CCCCCCCCCCCCSC[C@H](NC(C)=O)C(=O)CSCCC(=O)O [HI-273, N-Ac-S-dodecyl-Cys-CH2 -S-CH2 CH2 CO2 H] | 44.4 | 50.3 | 20.1 | > 100 | > 100 |
| CC(=O)N[C@@H](CSC(=O)OCc1ccccc1)C(=O)CCl [HI-389, N-Ac-S-benzyloxycarbonyl-cysteine chloromethyl ketone] | 1.2 | 3.5 | 49.3 | 23.4 | 54.4 |
| CCCCCCCCCCCCOC[C@H](NC(=O)OC(C)(C)C)C(=O)CCl [HI-266, N-Boc-O-dodecyl serine chloromethyl ketone] | 64.5 |  | 49.9 |  | 37.1 |
| CC(=O)N[C@@H](CSC/C=C(\C)CCC=C(C)C)C(=O)CCl [HI-127, N-Ac-S-trans-geranyl-Cys chloromethyl ketone] | > 100 | > 100 | > 100 | > 100 | > 100 |
| CCCCCCCCCCCCSC[C@H](NC(C)=O)C(=O)CSc1ccc2ccccc2c1 [HI-302, N-Ac-S-dodecyl-Cys-CH2 -S-2-naphthyl] | > 100 | > 100 | > 100 | > 100 | > 100 |
| COc1ccc(CSC[C@H](NC(C)=O)C(=O)CCl)cc1 [HI-351, N-Ac-S-4-methoxybenzyl-cysteine chloromethyl ketone] | 60.2 | 4.75 | 73.1 | 43.8 | 45.6 |
| CC(C)=CCC/C(C)=C/CC/C(C)=C/CSCCC(=O)C=[N+]=[N-] [HI-83, S-trans-trans-Farnesyl-mercaptoethyl diazomethyl ketone] | 53.5 | 6.8 | > 100 | > 100 | > 100 |
| CCCCCCCCCCCCSC[C@H](NC(C)=O)C(=O)N(C)OC [HI-267, N-Ac-S-dodecyl-Cys-N(OCH3)-CH3] | 50.1 |  | > 100 | > 100 | > 100 |
| CCCCCCCCCCCCSC[C@@H](C=O)NC(C)=O [HI-274, N-Ac-S-dodecyl-Cys-H] | 12.6 | 13.1 | 22.8 |  | > 100 |
| CCCCCCCCCCCCSC[C@H](NC(=O)OC(C)(C)C)C(=O)CCl [HI-129, N-Boc-S-dodecyl-Cys chloromethyl ketone] | 15.1 | 15.5 | 48.9 | 64.6 | > 100 |
| C=CCSC[C@H](NC(C)=O)C(=O)CCl [HI-419, N-Ac-S-allyl-cysteine chloromethyl ketone] | 4.3 | 7.3 | 55.7 | > 100 | 56.7 |
| CCCCCCCCCCCCOC[C@H](NC(C)=O)C(=O)CCl [HI-489, N-Ac-O-dodecyl-serine chloromethyl ketone] | 3.8 | 15.3 | > 100 | > 100 | > 100 |
| CCCCCCCCCCCCSC[C@H](NC(C)=O)C(=O)CSC(c1ccccc1)(c1ccccc1)c1ccccc1 [HI-365] | 93.1 | 97.3 | > 100 | > 100 | > 100 |
| CC(=O)N[C@@H](CSC/C=C(\C)CCC=C(C)C)C(=O)C=[N+]=[N-] [HI-122, N-Ac-S-trans-geranyl-Cys diazomethyl ketone] | > 100 | > 100 | > 100 | > 100 | > 100 |
| CC(C)=CCC/C(C)=C/CC/C(C)=C/CSCC(=O)CCl [HI-126, S-trans-trans-Farnesyl-mercaptomethyl chloromethyl ketone] | 84.3 | > 100 | > 100 | > 100 | > 100 |
| CCCCCCCCCCCCSC[C@H](NC(C)=O)C(=O)CSc1ccccc1 [HI-269, N-Ac-S-dodecyl-Cys-CH2 -SPh] | > 100 | > 100 | > 100 | > 100 | > 100 |
| CC(=O)N[C@@H](CSCC=C(C)C)C(=O)CCl [HI-128, N-Ac-S-(3-methyl-2-butenyl)-Cys chloromethyl ketone] | 12.6 | 7.9 | 25.7 | 47.8 | > 100 |
| CCCCCCCCCCCCSC[C@H](NC(=O)c1ccccc1)C(=O)CCl [HI-491, N-Benzoyl-S-dodecyl-cysteine chloromethyl ketone] | 5.4 | 6.5 | > 100 | 52.1 | > 100 |
| CC(C)=CCC/C(C)=C/CC/C(C)=C/CSC[C@H](NC(=O)OC(C)(C)C)C(=O)C=[N+]=[N-] [HI-82, N-Boc-S-farnesyl-Cys diazomethyl ketone] | 49.8 | 50.1 | > 100 | > 100 | > 100 |
